Target: T1, HNEAA81 (Homo sapiens, UniProt Q9BPV8)
T1 construct: expressed in transfected cells; host or cells: HEK-293 (transient co-transfection)
T1 sequence (Q9BPV8 1-333 isoform Q9BPV8-2): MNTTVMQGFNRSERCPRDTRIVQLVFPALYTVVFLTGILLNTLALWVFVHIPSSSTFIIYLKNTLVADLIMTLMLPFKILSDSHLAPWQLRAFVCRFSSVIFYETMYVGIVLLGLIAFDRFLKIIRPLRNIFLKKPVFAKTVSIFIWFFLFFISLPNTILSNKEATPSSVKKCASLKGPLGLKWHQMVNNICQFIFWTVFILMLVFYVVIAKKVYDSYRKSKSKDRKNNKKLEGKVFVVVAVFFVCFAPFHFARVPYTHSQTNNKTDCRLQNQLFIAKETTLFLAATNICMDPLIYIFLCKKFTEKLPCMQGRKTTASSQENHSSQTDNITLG
Assay: FLIPR calcium mobilisation response in HEK-293 cells transiently co-transfected with HNEAA81 and G-proteins
Format: cell-based
Details: for calcium mobilization response (in words): HEK-293 cells transfected with HNEAA81 and the G-proteins
Procedure: HEK-293 cells were transiently co-transfected with a mammalian expression plasmid encoding HNEAA81 polypeptide, along with cDNAs encoding either the promiscuous G-protein Gal6 or the chimeric G-proteins Gql5 or Gqo5and assayed on FLIPR (Fluorometric Imaging Plate Reader) for a calcium mobilisation response following addition of AP6A or AP5A or d-UDP.
A dose-dependent (EC50s ˜300 nM), calcium mobilization response was detected following addition of AP6A (response with AP5A or d-UDP not so strong) to cells transfected with HNEAA81 and the G-proteins. […] The cDNAs for both the receptor and the G-proteins had to be expressed in the HEK-293 in order to detect a functional response to these agonists.

Row | Structure (SMILES) | calcium mobilization response (in words) | EC50 (HEK-293 cells transfected with HNEAA81 and the G-proteins (Gal6 or Gql5 or Gqo5), read-out: EC50 of dose-dependent calcium mobilization response) [nM]
1 | Nc1ncnc2c1ncn2C1OC(COP(=O)(O)OP(=O)(O)OP(=O)(O)OP(=O)(O)OP(=O)(O)OP(=O)(O)OCC2OC(n3cnc4c(N)ncnc43)C(O)C2O)C(O)C1O (stereo not shown) [AP6A, di-adenosine hexaphosphate] | dose-dependent | ~300
2 | O=c1ccn(C2OC(COP(=O)(O)OP(=O)(O)O)CC2O)c(=O)[nH]1 (stereo not drawn) [d-UDP] | not so strong | 
3 | Nc1ncnc2c1ncn2C1OC(COP(=O)(O)OP(=O)(O)OP(=O)(O)OP(=O)(O)OP(=O)(O)OCC2OC(n3cnc4c(N)ncnc43)C(O)C2O)C(O)C1O (stereo not shown) [AP5A, di-adenosine pentaphosphate] | not so strong | 
